Assays:
Colon cancer cell lines = assay: NCI in vitro cytotoxicity screen (SRB), colon panel; format: cell-based, human; details: average of six to eight different cancer cell lines
Experimental: (§1) Biological Activity: In vitro biological activity studies were carried out at National Cancer Institute (USA).
(§2) Cytotoxicity: Compounds VIa and VIb were evaluated in vitro against sixty human tumour cells derived from nine cancer types (leukemia, non-small-cell lung, colon, CNS, melanoma, ovarian, prostate, and breast cancer). For each compound, dose response curves for each cell line were measured at a minimum of five concentrations at 10 fold dilutions. A protocol of 48 h continuous drug exposure was used and a sulforhodamine B (SRB) protein assay was used to estimate cell viability or growth. The concentration causing 50% cell growth inhibition (GI50), total cell growth inhibition (TGI 0% growth) and 50% cell death (LC50, −50% growth) compared with the control was calculated.
(§3) Each cancer type represents the average of six to eight different cancer cell lines.

Breast cancer cell lines = assay: NCI in vitro cytotoxicity screen (SRB), breast panel; format: cell-based, human; details: average of six to eight different cancer cell lines
Experimental: as §1, §2, §3

[1] = test system: sixty human tumour cells derived from nine cancer types; assay: NCI in vitro cytotoxicity screen, 48 h drug exposure, sulforhodamine B (SRB) protein assay; format: cell-based; details: for Log10 GI50 mean graph midpoint (MG_MID): concentration causing 50% cell growth inhibition; for Log10 GI50 mean graph midpoint (MG_MID) / Log10 TGI mean graph midpoint (MG_MID): mean over human tumour cell lines, 48 h exposure; for Log10 TGI mean graph midpoint (MG_MID): total cell growth inhibition (0% growth)
Experimental: as §1, §2

Leukaemia cell lines = assay: NCI in vitro cytotoxicity screen (SRB), leukaemia panel; format: cell-based, human; details: average of six to eight different cancer cell lines
Experimental: as §1, §2, §3

[2] = test system: non-small-cell lung cancer cell lines; assay: NCI in vitro cytotoxicity screen (SRB), non-small-cell lung panel; format: cell-based, human; details: average of six to eight different cancer cell lines
Experimental: as §1, §2, §3

Melanoma cell lines = assay: NCI in vitro cytotoxicity screen (SRB), melanoma panel; format: cell-based, human; details: average of six to eight different cancer cell lines
Experimental: as §1, §2, §3

Renal cancer cell lines = assay: NCI in vitro cytotoxicity screen (SRB), renal panel; format: cell-based, human; details: average of six to eight different cancer cell lines
Experimental: as §1, §2, §3

CNS cancer cell lines = assay: NCI in vitro cytotoxicity screen (SRB), CNS panel; format: cell-based, human; details: average of six to eight different cancer cell lines
Experimental: as §1, §2, §3

[3] = test system: Ovarian cancer cell lines; assay: NCI in vitro cytotoxicity screen (SRB), ovarian panel; format: cell-based, human; details: average of six to eight different cancer cell lines
Experimental: as §1, §2, §3

[4] = test system: Prostate cancer cell lines; assay: NCI in vitro cytotoxicity screen (SRB), prostate panel; format: cell-based, human; details: average of six to eight different cancer cell lines
Experimental: as §1, §2, §3

Row | Structure (SMILES) | in vitro cytotoxicity, log10 value (quantity not given) (Colon cancer cell lines) | in vitro cytotoxicity, log10 value (quantity not given) (Breast cancer cell lines) | Log10 GI50 mean graph midpoint (MG_MID) [1] | Log10 TGI mean graph midpoint (MG_MID) [1] | in vitro cytotoxicity, log10 value (quantity not given) (Leukaemia cell lines) | in vitro cytotoxicity, log10 value (quantity not given) [2] | in vitro cytotoxicity, log10 value (quantity not given) (Melanoma cell lines) | in vitro cytotoxicity, log10 value (quantity not given) (Renal cancer cell lines) | in vitro cytotoxicity, log10 value (quantity not given) (CNS cancer cell lines) | in vitro cytotoxicity, log10 value (quantity not given) [3] | in vitro cytotoxicity, log10 value (quantity not given) [4] | cytotoxic / anticancer activity, in words ([1]; human tumour cell lines)
1 | COc1cc2c(cc1OCCCOc1cc(-c3ccc(F)cc3)nc(C)n1)N=C[C@@H]1CCCN1C2=O [VIa, 7-methoxy-8-[6′-(4″-fluorophenyl)-2′-methylpyrimidine-4′-yloxy]propoxy-(11aS)-1,2,3,11a-tetrahydro-5H-pyrrolo[2,1,c][1,4]benzodiazepin-5-one] | −4.12 | −4.09 | −4.73 | −4.34 | −4.03 | −4.07 | −4.14 | −4.18 | −4.10 | −4.05 | −4.00 | 
2 | COc1cc2c(cc1OCCCCOc1cc(-c3ccc(F)cc3)nc(C)n1)N=C[C@@H]1CCCN1C2=O [VIb, 7-methoxy-8-[6′-(4″-fluorophenyl)-2′-methylpyrimidine-4′-yloxy]butoxy-(11aS)-1,2,3,11a-tetrahydro-5H-pyrrolo[2,1,c][1,4]benzodiazepin-5-one] | −4.67 | −4.52 | −6.41 | −5.57 | −5.41 | −4.61 | −5.22 | −4.39 | −4.40 | −4.33 | −4.45 | slightly higher activity
